SMILES strings stand for the structures.

One data set has as its target LecB PAO1 (Pseudomonas aeruginosa, UniProt Q9HYN5). Format: binding. Conditions: target LecB PAO1. The method, then:
LecB (LecB PAO1 according to Hauck et al. and LecB PA14 according to Sommer et al.): A serial dilution of the test compounds was prepared in TBS/Ca, with 20% DMSO as cosolvent. […] Fluorescence was measured and analysed as for LecA. Bottom and top plateaus were fixed according to the control compound in each assay (1-fucose) and the data was re-analysed with these values fixed. A minimum of three independent measurements on three plates was performed for each inhibitor.

The format of data set [1] is in vitro ADME. The method, then:
Each compound dissolved in DMSO was added to mouse plasma (pH 7.4, 37° C.) or to human plasma (pH 7.4, 37° C.) to yield a final concentration of 1 μM. In addition, procaine and procainamide (dissolved in DMSO) were added to mouse plasma or to human plasma (pH 7.4, 37° C.) to yield a final concentration of 1 μM. Procaine served as positive control as it is unstable in mouse plasma. Procainamide served as negative control as it is stable in mouse plasma. The samples were incubated for 0 min, 15 min, 30 min, 60 min, 90 min, 120 min and 240 min at 37° C. At each time point, 10 μl of the respective sample was extracted with 90 l acetonitrile and 1 μl of caffeine as internal standard for 5 min at 2000 rpm on a MixMate® vortex mixer (Eppendorf). Acetonitrile and caffeine were dispensed using a Mantis Formulatrix®. The samples were centrifuged for 20 min at 2270 ref at 4° C. and the supernatants were transferred to 96-well Greiner V-bottom plates. Samples were analysed using HPLC-MS/MS analysis as described in the respective section. Peak areas of each compound and of the internal standard were analysed using the MultiQuant 3.0 software (AB Sciex). […]
Cell samples as well as plasma stability, plasma protein binding and metabolic stability samples were analysed using an Agilent 1290 Infinity II coupled to an AB Sciex 6500plus mass spec-trometer. […]

A further data set addresses T1, LecA (Pseudomonas aeruginosa, UniProt Q05097).
T1 construct: made in house
The data set can be described thus: Competitive binding assay based on fluorescence polarization with LecA. Conditions: target LecA; read-out: IC50 ± s.d. On the procedure: LecA (according to Joachim et al.): A serial dilution of the test compounds was prepared in TBS/Ca (8.0 g/L NaCl, 2.4 g/L Tris, 0.19 g/L KCl, 0.15 g/L CaCl2·2 H2O), with 30% DMSO as co-solvent. […] The measured intensities were reduced by the values of only LecA in TBS/Ca and fluorescence polarization was calculated. The data was analysed with the MARS Data Analysis Software (BMG Labtech GmbH, Germany) and fitted according to the four-parameter variable slope model. Bottom and top plateaus were fixed according to the control compounds in each assay ((p-nitrophenyl)-p-D-galactoside) and the data was re-analysed with these values fixed. A minimum of three independent measurements on three plates was performed for each inhibitor.
Averages and standard deviations were calculated from at least three independent experiments.

LecB PAO1, sequence (Q9HYN5 entry or part of it): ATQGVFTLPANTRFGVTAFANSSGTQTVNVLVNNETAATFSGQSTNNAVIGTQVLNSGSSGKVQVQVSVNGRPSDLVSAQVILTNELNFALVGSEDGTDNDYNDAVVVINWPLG
T1 sequence (Q05097 whole entry): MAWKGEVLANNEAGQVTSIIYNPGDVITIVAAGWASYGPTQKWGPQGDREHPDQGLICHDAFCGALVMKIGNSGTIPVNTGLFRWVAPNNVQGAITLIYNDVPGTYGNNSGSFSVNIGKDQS

One may read the IC50 as the concentration needed to halve the response being measured. In general, Ki refers to a measure of affinity in units of concentration, obtained from inhibition or displacement. As for `CC(C)CC(NC(=O)CNC(=O)C(C)NC(=O)c1ccc(S(=O)(=O)NCC2OC(C)C(O)C(O)C2O)cc1)C(=O)NC(C)C(=O)NC1CCN(c2cc3c(cc2F)c(=O)c(C(=O)O)cn3C2CC2)C1` (stereo not drawn) [Compound 37], at LecB PAO1, it took 3.59 ± 1.92 µM to reach half-maximal inhibition (IC50) and the “IC50 ± s.d.” value is “one-digit micromolar range”. Besides, the Ki on LecB PAO1 (calculated as Ki from IC50, read-out: Ki ± s.d.) is 1.43 ± 0.9 µM. In data set [1], the “plasma stability, t1/2 human” value came to 2.25 h and the “plasma stability, t1/2 mouse” value came out at 1.23 h.
For `CC(C)C[C@H](NC(=O)CNC(=O)[C@H](C)NC(=O)c1ccc(S[C@@H]2O[C@H](CO)[C@H](O)[C@H](O)[C@H]2O)cc1)C(=O)N[C@@H](C)C(=O)N[C@H]1CCN(c2cc3c(cc2F)c(=O)c(C(=O)O)cn3C2CC2)C1` [Compound 36], the IC50 on LecA was roughly 30 µM.

Values taken from patent US20250295790A1, “LECTIN-TARGETING CONJUGATES” (Helmholtz-Zentrum für Infektionsforschung GmbH, priority 2021, published 2025).
